Key:
[1] = type: in vitro ADME, Sprague-Dawley rat; conditions: rat serum, 85 min incubation
Procedure: FIG. 6. In vitro metabolic stability of 2-[^18F]F-ENB in rat and human plasma. (a-d) HPLC traces of metabolites of 2-[^18F]F-ENB incubated with rat plasma at different time points (2 min, 10 min, 30 min, 85 min) and spiked with cold standards.
2-[^18F]F-ENB (600 μCi) was incubated with Sprague-Dawley rat plasma (5.0 mL) at 37° C. Subsequently, 0.4 mL aliquots of the plasma were taken 2, 10, 30, and 85 min after addition of the tracer, and 0.6 mL of MeCN was added to quench the metabolism. The mixture was centrifuged at 13 400 rpm for 10 min to remove proteins, and both the supernatant and the protein pellet were analyzed by gamma counting to calculate the extraction efficiency. […] The radioactive fractions corresponding to each cold standard were collected and radioactivity was quantified using a gamma counter from which the percentage of each metabolite was calculated.

[2] = test system: S. aureus Xen29; experiment: PET/CT imaging of rat triceps infection / sterile inflammation model (S. aureus Xen29); type: in vivo, Sprague-Dawley rats; conditions: 180 min post tracer injection
Procedure: FIG. 5. PET/CT imaging of rats infected in the right triceps with the bioluminescent Xen29 strain of S. aureus. (A) Experimental design. (B) 2-[^18F]F-ENB-derived radioactivity accumulates in the infected triceps (red arrow) but not the inflamed triceps (yellow arrow) at 3 h post tracer administration.
FIG. 8. PET/CT imaging of 2-[^18F]F-NB in a rat model of S. aureus Xen29 infection. (A) Radiosynthesis of 2-[^18F]F-NB. (i) [^18F]potassium fluoride, Kryptofix222, potassium carbonate, dimethyl sulfoxide, r.t., 10 min; (ii) 2 M potassium hydroxide in H2O, 105° C., 10 min; Overall decay-corrected radiochemical yield: 26% (n=1).
FIG. 10. Time activity curve (TAC) in infected triceps, inflamed triceps and blood and biodistribution of 2-[^18F]F-NB in major organs. (a) The right triceps of the rats were infected with S. aureus Xen 29 and the left triceps were injected with a 10-fold higher burden of heat-killed S. aureus to induce sterile inflammation. The rats were scanned by PET/CT for 120 min (rats with sterile inflammation in the left triceps) immediately starting from tracer administration. The PET scan was separated into ten frames (1-min) and twenty-two frames (5-min). TACs of infected triceps (blue), inflamed triceps (grey) and blood (left heart ventricle, red) are shown. Data represented as mean with standard error of the mean (n=4). (b) Time-dependent accumulation of 2-[^18F]F-NB in infected and inflamed triceps compared to the blood (left heart ventricle). Data are presented as the mean and standard error of the mean (n=4). […]
S. aureus (Newman or Xen29) was cultured overnight by inoculating 5 μL of bacteria from a glycerol stock into 10 mL of fresh cation-adjusted Mueller-Hinton (CAMH) broth or tryptic soy broth (TSB). […] After imaging, the infected triceps were collected, homogenized in PBS using a hand-held homogenizer, and the bacterial burden at the time of imaging was determined by plating the muscle tissues onto solid MH medium. After overnight incubation at 37° C., CFUs were quantified by enumeration. […]

[3] = In vivo metabolite analysis in blood and urine of healthy rats (radio-HPLC); parameters: species or system Sprague-Dawley rats
Procedure: FIG. 7. Analysis of metabolites in the plasma and urine of healthy rats after intravenous injection (IV) of 2-[^18F]F-ENB. After IV administration of 2-[^18F]F-ENB, the animals were sacrificed at each time point (n=3 rats) and the blood and urine samples were collected for radio-HPLC analysis. […] The percent of each metabolite in blood (B) and urine (C) is shown.
2-[^18F]F-ENB (1 mCi) was injected via the tail vein into healthy female Sprague-Dawley rats (10 weeks old, Charles River). […] The mixture was centrifuged at 13 400 rpm for 5 min to remove the protein, and the supernatant and protein pellet were analyzed by gamma counter to determine the efficiency of extraction. […] The radioactive fractions corresponding to each cold standard were collected and analyzed using a gamma counter from which the percentage of each metabolite was calculated (n=3).
Analysis of the radioactive metabolites in the urine was performed using a similar procedure from samples obtained from the bladder 30 and 60 min after tracer injection. The urine was diluted with 45% MeCN/H2O, centrifuged at 13 400 rpm for 5 min and spiked with cold standards for radio-HPLC analysis.

[4] = test system: S. aureus Xen29; experiment: PET imaging of infective endocarditis rat model; type: in vivo, Sprague-Dawley rats; conditions: day-3 post infection, 60 min and 120 min post tracer injection
Excerpt: Female Sprague-Dawley rats (weight, ˜200 g, Charles River) were maintained in an anesthetized state with an isofluorane-oxygen gas mixture during surgery. A sterile polyethylene catheter was placed and positioned in the left ventricle through a small incision via the retrograde transcarotid artery approach.
The catheter was left in place throughout the experiments. At 24-hour post-catheterization, the rats were infected intravenously through the tail vein with an inoculum of S. aureus Xen29 of 10^6 CFU in 0.5 mL sterile saline. The animals were imaged for bioluminescence signal in the region of the hearts with IVIS daily after infection. The optimal BLI signal over the heart area was determined to be day-3 post inoculation (FIG. 15A and FIG. 16A).

[5] = test system: S. aureus Xen36; experiment: PET imaging of prosthetic joint infection (PJI) mouse model; type: in vivo, Balb/c mice; conditions: day-2 post infection, 60 min and 120 min post tracer injection
Procedure: Balb/c mice was anesthetized by inhalation of a mixture of isofluorane and oxygen. A medical-grade stainless steel Kirschner wire was inserted into the distal part of the femur which has been exposed by dislocation of the patella and reamed with a 25-gauge needle. 2 μL of S. aureus Xen36 (4 log 10 CFU) will be inoculated into the knee joint and onto the wire before the surgical incision is closed with absorbable sutures. The correct position of the wire in the canal was performed with X-ray scan. The animals were imaged for bioluminescence signal in the region of the surgical joint with IVIS daily after infection. The optimal BLI signal over the joint area was determined to be day-2 post inoculation (FIG. 20A).

CCOC(=O)c1ccc([N+](=O)[O-])cc1[18F] [2-[^18F]F-ENB, Ethyl 2-[^18F]F-4-nitrobenzoate]
stability of the nitro group [1]: the nitro group was unaffected
localisation of radioactive signal [2]: predominantly observed in the infected triceps
radioactive components in blood after IV administration ([3]; blood at 5, 30 and 60 min): 2-[^18F]F-NB was the predominant radioactive component at each time point
radioactive components in urine after IV administration ([3]; urine at 30 and 60 min post injection): the majority of the radioactive signal could be attributed to 2-[^18F]F-NB
PET signal over the heart region [4]: a robust radioactive signal was detected over the heart region
PET signal over the joint region [5]: a robust radioactive signal was detected over the joint region
